± gives the standard deviation of the reports.
Row | SMILES | glass transition temperature [°C]
1 | *C(F)(F)C(*)(F)c1ccccc1 (repeat unit) | 206.00
2 | *CC(OC=O)C(COC(=O)O*)OC=O (repeat unit) | 54.30
3 | *O[Si](C)(CCC(F)(F)F)CCC(F)(F)C(F)(F)C(F)(F)C(F)(F)CC[Si](*)(C)CCC(F)(F)F (repeat unit) | -25.00
4 | *CC(*)(CC(=O)OC)C(=O)O (repeat unit) | 159.00
5 | *Oc1ccc(Oc2ccc(Oc3cccc(C(=O)Oc4ccc(-c5ccc(OC(=O)c6cccc(*)c6)cc5)cc4)c3)cc2)cc1 (repeat unit) | 119.00
6 | *CC(OCCCC)C(C)(C(=O)OC)C(*)(C)C(=O)OC (repeat unit) | 97.50
7 | *CC(*)(C)C(N)=O (repeat unit) | 88.70
8 | *c1cccc(C(=O)Nc2cccc(S(=O)(=O)c3cccc(NC(=O)c4cccc(N5C(=O)c6ccc(-c7ccc8c(c7)C(=O)N(*)C8=O)cc6C5=O)c4)c3)c2)c1 (repeat unit) | 247.00
9 | *CC(*)C(=O)OCC(F)(F)C(F)(F)C(F)(F)C(F)(F)F (repeat unit) | -37.00
10 | *c1ccc(OCCOc2cccc(N3C(=O)c4ccc(Oc5ccc6c(c5)C(=O)N(*)C6=O)cc4C3=O)c2)cc1 (repeat unit) | 178.50
11 | *C(=O)Nc1ccc(Oc2ccc(C3(c4ccc(Oc5ccc(NC(=O)c6ccc7c(c6)C(=O)N(c6ccc(Oc8ccc(S(=O)(=O)c9ccc(Oc%10ccc(N%11C(=O)c%12ccc(*)cc%12C%11=O)cc%10)cc9)cc8)cc6)C7=O)cc5)cc4)NC(=O)c4ccccc43)cc2)cc1 (repeat unit) | 283.00
12 | *Oc1c(Cl)cc(C2(c3cc(Cl)c(OC(*)=O)c(Cl)c3)CCCCC2)cc1Cl (repeat unit) | 163.00
13 | *Oc1ccccc1C(=O)OC(=O)c1ccccc1OC(=O)CCCCCCC(*)=O (repeat unit) | 28.00
14 | *C(=O)c1ccc2c(c1)C(=O)N(c1ccc3c(c1)Cc1cc(N4C(=O)c5ccc(*)cc5C4=O)ccc1-3)C2=O (repeat unit) | 341.50
15 | *c1cc(Br)c(Oc2c(Br)cc(N3C(=O)c4ccc(-c5ccc6c(c5)C(=O)N(*)C6=O)cc4C3=O)cc2Br)c(Br)c1 (repeat unit) | 287.00
16 | *OC1CCC(OC(=O)C(*)=O)CC1 (repeat unit) | 139.60
17 | *CC(*)OC(=O)c1ccccc1 (repeat unit) | 70.40
18 | *c1ccc(Oc2ccc(N3C(=O)c4ccc(Oc5c(C)cc(-c6cc(C)c(Oc7ccc8c(c7)C(=O)N(*)C8=O)c(C)c6)cc5C)cc4C3=O)cc2)cc1 (repeat unit) | 299.00
19 | */C(C)=[C](/*)[Ge]([CH3])([CH3])[CH3] (repeat unit) | 250.00
20 | *Oc1cccc(OC(=O)c2ccc([Si](C)(C)c3ccc(C(*)=O)cc3)cc2)c1 (repeat unit) | 134.00
21 | *Oc1ccc(S(=O)(=O)c2ccc(Oc3ccc(C(C)(C)c4ccc(*)cc4)cc3[N+](=O)[O-])cc2)cc1 (repeat unit) | 190.00
22 | *N=P(Cl)(N=P(Cl)(/N=S(/*)Oc1ccccc1-c1ccccc1)Oc1ccccc1-c1ccccc1)Oc1ccccc1-c1ccccc1 (repeat unit) | 79.00
23 | *CC(CC)O* (repeat unit) | -71.50

Row | SMILES | glass transition temperature [°C]
24 | *Oc1cc(CCCCCC)cc(OC(=O)c2cccc(C(*)=O)c2)c1 (repeat unit) | 67.50
25 | *C(=O)c1ccc2c(c1)C(=O)N(c1ccc(-c3ccc(N4C(=O)c5ccc(*)cc5C4=O)cc3)cc1)C2=O (repeat unit) | 382.00
26 | *c1ccc(Oc2ccc(NC(=O)CN3C(=O)c4ccc(C(c5ccc6c(c5)C(=O)N(CC(=O)Nc5ccc(Oc7ccc(-c8nnc(*)o8)cc7)cc5)C6=O)(C(F)(F)F)C(F)(F)F)cc4C3=O)cc2)cc1 (repeat unit) | 263.00
27 | *Oc1ccc(C(C)(C)c2ccc(Oc3ccc(*)nn3)cc2)cc1 (repeat unit) | 180.00
28 | */C=C(/c1ccc(*)cc1)c1ccc(C(F)(F)F)cc1 (repeat unit) | 199.00
29 | *c1ccc(-c2ccc(-c3nc4cc(Oc5ccc6nc(-c7ccccc7)c(*)nc6c5)ccc4nc3-c3ccccc3)cc2)cc1 (repeat unit) | 410.00
30 | *C(=O)c1ccc(C(=O)c2ccc(Oc3ccc(C(C)(C)c4ccc(Oc5ccc(*)s5)cc4)cc3)s2)cc1 (repeat unit) | 154.00
31 | *c1ccc(Oc2ccc(N3C(=O)C4CCC5C(=O)N(*)C(=O)C5C4C3=O)cc2)cc1 (repeat unit) | 342.00
32 | *Oc1ccc(C(C)(C)c2ccc(OC(=O)c3ccc4c(c3)C(C)(c3ccc(C(*)=O)cc3)CC4(C)C)cc2)cc1 (repeat unit) | 265.00
33 | *CC(O)COC(=O)CCCCCCCCC(=O)OCC(O)COc1ccc(/C=C(\C)c2ccc(O*)cc2)cc1 (repeat unit) | 30.00
34 | *OCCOC(=O)CCCCC(=O)OCCOc1nc(-c2ccc(OC)cc2)nc(*)c1-c1ccc(OC)cc1 (repeat unit) | 48.00
35 | *NC(C)CCC(C)(C)CCCNC(=O)c1ccc(C(*)=O)cc1 (repeat unit) | 150.00
36 | *c1ccc(-c2sc(-c3ccc(-c4cc(CCCC)c(*)s4)cc3)cc2CCCC)cc1 (repeat unit) | 58.30
37 | *Oc1ccc(NC(=O)CCCCCCC(=O)Nc2ccc(OC3COC4C(*)COC34)cc2)cc1 (repeat unit) | 72.50
38 | *c1cccc(-n2nc(-c3ccccc3)c3cc(Oc4ccc5c(-c6ccccc6)nn(*)c(=O)c5c4)ccc3c2=O)c1C#N (repeat unit) | 301.00
39 | *CC(CO*)(CS(=O)(=O)CC)CS(=O)(=O)CC (repeat unit) | 84.00
40 | *Oc1ccc(NC(=O)c2cc(C(=O)Nc3ccc(Oc4ccc(C(C)(C)c5ccc(*)cc5)cc4)cc3)cc(C(C)(C)C)c2)cc1 (repeat unit) | 244.00
41 | *c1ccc(Oc2ccc(N3C(=O)c4ccc(Oc5c(Oc6ccc7c(c6)C(=O)N(*)C7=O)cc(C(C)(C)C)cc5C(C)(C)C)cc4C3=O)cc2)cc1 (repeat unit) | 228.00
42 | *OC(=O)c1cccc(OCCCCCCOc2cccc(C(=O)OC3COC4C(*)COC34)c2)c1 (repeat unit) | 43.50
43 | *OC(COC(=O)c1cc(C(*)=O)cc(C(C)(C)C)c1)COc1ccc(/N=N/c2ccc(C#N)cc2)cc1 (repeat unit) | 137.00
44 | *C(=O)Nc1cccc(NC(=O)c2ccc3c(c2)C(=O)N(c2ccc(Oc4ccc(C5(c6ccc(Oc7ccc(N8C(=O)c9ccc(*)cc9C8=O)cc7)cc6)NC(=O)c6ccccc65)cc4)cc2)C3=O)c1 (repeat unit) | 328.00
45 | *c1ccc(-c2ccc(-c3nc4ccc(Oc5ccc6nc(*)c(-c7ccccc7)c(-c7ccccc7)c6c5)cc4c(-c4ccccc4)c3-c3ccccc3)cc2)cc1 (repeat unit) | 351.00
46 | *Oc1ccc(C2(c3ccc(OC(*)=O)cc3)c3cc(N(C)C)ccc3-c3ccc([N+](=O)[O-])cc32)cc1 (repeat unit) | 278.00

Row | SMILES | glass transition temperature [°C]
47 | *Oc1ccc(-c2ccc(Oc3ccc(C(=O)c4cccc5cccc(C(=O)c6ccc(*)cc6)c45)cc3)cc2)cc1 (repeat unit) | 226.50
48 | *c1c(C)cc(C)c(N2C(=O)c3ccc(Oc4ccc(Oc5ccc6c(c5)C(=O)N(*)C6=O)cc4)cc3C2=O)c1C (repeat unit) | 345.00
49 | *CCC[Si](*)(C)O[Si](C)(C)CCCOc1ccc(C#N)cc1 (repeat unit) | -45.50
50 | *Oc1ccc(-c2ccc(OC3(F)C(*)(F)C(F)(F)C3(F)F)cc2)cc1 (repeat unit) | 161.00
51 | *CCCCCNC(=O)C(OC)C(OC)C(=O)N* (repeat unit) | 113.00
52 | *c1ccc(*)c(C(=O)c2ccc(C)cc2)c1 (repeat unit) | 202.00
53 | *c1ccc2c(c1)C(=O)N(c1cccc(Oc3cccc(N4C(=O)c5ccc(C(*)(C(F)(F)F)C(F)(F)F)cc5C4=O)c3)c1)C2=O (repeat unit) | 244.00
54 | *Oc1ccc(NC(=O)c2cccc(C(=O)Nc3ccc(Oc4ccc(C5(c6ccc(*)cc6)CC6CCC5C6)cc4)cc3)c2)cc1 (repeat unit) | 256.00
55 | *Oc1ccc(NC(=O)c2ccc(C(=O)Nc3ccc(OC4COC5C(*)COC45)cc3)cc2)cc1 (repeat unit) | 57.00
56 | *Oc1ccc(C(C)(CCC#N)c2ccc(OC(*)=O)cc2)cc1 (repeat unit) | 150.00
57 | *OC(C)C(*)=O (repeat unit) [poly(l - lactic acid)] | 51.4 ± 43
58 | *C(=O)c1ccc2c(c1)/C(=N\c1cccc(Oc3cccc(Oc4cccc(/N=C5/OC(=O)c6ccc(*)cc65)c4)c3)c1)OC2=O (repeat unit) | 190.00
59 | *CCCCCCCCCCOC(=O)c1ccccc1C(=O)O* (repeat unit) | -14.00
60 | *CC(*)(C)C(=O)OCCOCCOC (repeat unit) | 57.00
61 | *CC(*)(C)C(=O)NC1C(O)OC(CO)C(O)C1O (repeat unit) | 90.50
62 | *CC(CCCCCCOc1ccc(/N=N/c2ccc(C#N)cc2)cc1)COC(=O)CCCCCCCCCCCCC(=O)O* (repeat unit) | 21.50
63 | *=CNc1ccc(Cc2ccc(N=*)cc2)cc1 (repeat unit) | 95.50
64 | *CC(*)(C)C(=O)OCCCCc1ccccc1 (repeat unit) | 9.00
65 | *c1ccc2c(c1)C(=O)N(c1ccc(Oc3cccc(Oc4ccc(N5C(=O)c6ccc(C(*)(C(F)(F)F)C(F)(F)F)cc6C5=O)cc4)c3)cc1)C2=O (repeat unit) | 241.50 ± 18
66 | *CC(*)c1ccc(C(=O)OCCC)cc1 (repeat unit) | 92.00
67 | *c1nc(-c2ccccc2)nc(N(CCCCCCCCCCN(*)c2ccccc2)c2ccccc2)n1 (repeat unit) | 62.00
